Data set [1] is described as follows: UV absorption (molar extinction coefficient). The data set is classed as physicochemical.
Data set [2] is described as follows: Zeta potential (Zetasizer Nano, Malvern) and charge density. Format: physicochemical. The note with it: for Zeta potential: 1% dispersion. The source says: Zeta potential of 1% dispersion of doubly quaternized UV absorber, Formula I, R═C18H37 and R1═OCH3 is found to be […] (Zetasizer Nano, Malvern). […] Also the high zeta potential (+46 mV) ensures the stability of colloidal formulations.
Molar extinction coefficient, ∈, in water: 19,700 mol^−1cm^−1 at 307 nm. Zeta potential: +46 mV, Charge density: 0.3066 meq/gram

A short description of data set [3]: Surface-active properties (surface tension of water, CMC). Format: physicochemical. The procedure: They reduce the surface tension of water from 72 Mn/m to 35 Mn/m at 1.0% concentration, at 30° C. These quaternized UV absorbers behave like cationic surface active agents and can be easily titrated against an anionic surfactant as a standard for two-phase titration for the determination of active matter.
Critical micelle concentration at 25° C. is 2.29×10^−3 mM

For data set [4], the system named is Propionibacterium acnesMTCC 1951. Description: Minimum growth inhibitory concentration. The data set is classed as cell-based, Propionibacterium acnes. The source says:
(§1) The doubly quaternized UV absorbers of Formula I (R═C8H17 to C22H45) according to the invention show decent antimicrobial properties. The minimum growth inhibitory concentrations against G +ve, G −ve bacteria and against the yeast for two compounds of Formula I of Example 3 and Example 4 are given in the Table III. This antimicrobial property is useful for preservation of personal care formulations. The antimicrobial activity against dandruff causing microorganism, Malassezia furfur is useful for hair care applications.

Data set [5] relates to Malassezia furfur MTCC 1374. The data set can be described thus: Minimum growth inhibitory concentration. The data set is classed as cell-based.
Excerpt: as §1

Data set [6] has as its system Escherichia coli ATCC 10142. Description: Minimum growth inhibitory concentration. Format: cell-based.
Excerpt: as §1

In data set [7] the test system is Candida albicans ATCC 10231. Description: Minimum growth inhibitory concentration. Format: cell-based.
Excerpt: as §1

In data set [8] the test system is Staphylococcus aureus ATCC6538. Description: Minimum growth inhibitory concentration. Format: cell-based.
Excerpt: as §1

For data set [9], the system named is Pseudomonas aeruginosa Immune type IV. Description: Minimum growth inhibitory concentration. The data set is classed as cell-based.
Excerpt: as §1

Consider `COc1ccc(C=CC(=O)NCCC[N+](C)(C)CC(O)C[N+](C)(C)C)cc1.[Cl-].[Cl-]` (stereo not shown) [Example 2, p-methoxy cinnamidopropyl (2-hydroxypropyl trimethyl ammonium chloride) dimonium chloride], for which the “Molar extinction coefficient, ∈” value in data set [1] (in water, at 290 nm) is reported as 22,000 mol^−1cm^−1.

As for `COc1ccc(C=CC(=O)NCCCN(C)C)cc1` [Example 1, p-methoxycinnamido propyldimethylamine], the “Molar extinction coefficient, ∈” value in data set [1] (in methanol, at 290 nm) was 24,224.

As for `CCCCCCCCCCCCCCCCCC[N+](C)(C)CC(O)C[N+](C)(C)CCCNC(=O)/C=C/c1ccc(OC)cc1` (stereo not shown) [Example 4, p-methoxy cinnamidopropyl (2-hydroxypropyl stearyl dimethyl ammonium chloride) dimonium chloride], in data set [1] (in water, at 307 nm), the “Molar extinction coefficient, ∈” value is on record as 19,700 mol^−1cm^−1. Further, in [2], the Charge density is 0.3066 meq/gram. Besides, the Zeta potential result in data set [2] is “+46 mV”; in data set [2] (listed as Formula I, R═C18H37 and R1═OCH3), “+47 mV”. The Surface effectiveness in data set [3] amounted to 34.2 mN/m. Also, the “surface efficiency (−log C20)” value in [3] was 6.23. The same compound came in with a Critical micelle concentration in data set [3] (at 25° C.) of 0.00229 mM. The “minimum growth inhibitory concentration” value in data set [4] is listed as 0.4%; in [5], 0.6%; in data set [6], 0.3%; in [7], 0.3%; in [8], 0.2%; in data set [9], 0.4%.

On to `CCCCCCCCCCCC[N+](C)(C)CC(O)C[N+](C)(C)CCCNC(=O)C=Cc1ccc(OC)cc1.[Cl-].[Cl-]` (stereo not shown) [Example 3, p-methoxy cinnamidopropyl (2-hydroxypropyl lauryl dimethyl ammonium chloride) dimonium chloride], for which the “Molar extinction coefficient, ∈” value in data set [1] (in water, at 305 nm) was 19,500 mol^−1cm^−1. Moreover, the “minimum growth inhibitory concentration” value in [4] is 0.5%; in [5], 0.5%; in [6] it was 0.4%; in data set [7], 0.3%; in [8] it was 0.3%; in [9], 0.4%.

The values are drawn from patent US10758467B2, “Highly substantive water-soluble UV absorbers and process for preparation thereof” (GALAXY SURFACTANTS LTD., priority 2018, dated 2020).
